Test results reported in patent US7427625B2, “Substituted thiatriazaacenaphthylene-6-carbonitrile kinase inhibitors” (Janssen Pharmaceutica, N.V., priority 2006, dated 2008).

Key:
[1] = biological target: T1, VEGF-R2 (Rattus norvegicus, UniProt O08775); experiment: VEGF-R2 Screening Assay; assay type: biochemical
T1 construct: polyhistidine (N)

[2] = biological target: T2, Aurora-A (Mus musculus, UniProt P97477); experiment: Aurora-A Screening Assay; assay type: biochemical, murine
T2 construct: followed by the full length protein encoding the murine Aurora-A; polyhistidine (N); made in house; host or cells: sf9 insect cells
T2 sequence (P97477 1-395): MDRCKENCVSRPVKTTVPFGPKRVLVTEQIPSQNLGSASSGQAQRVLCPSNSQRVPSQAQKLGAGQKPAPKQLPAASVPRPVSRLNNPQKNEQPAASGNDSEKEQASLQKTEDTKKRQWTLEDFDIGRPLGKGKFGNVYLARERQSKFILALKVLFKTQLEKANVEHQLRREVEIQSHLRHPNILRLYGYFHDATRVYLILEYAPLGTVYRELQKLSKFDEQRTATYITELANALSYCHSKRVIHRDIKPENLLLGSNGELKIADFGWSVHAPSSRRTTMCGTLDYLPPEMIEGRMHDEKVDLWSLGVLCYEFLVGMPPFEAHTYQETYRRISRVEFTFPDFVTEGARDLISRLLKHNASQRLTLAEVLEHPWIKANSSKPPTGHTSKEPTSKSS

[3] = biological target: T3, c-Src kinase (Homo sapiens, UniProt P12931); experiment: c-Src Kinase Assay; assay type: biochemical; settings: for inhibition at 2 µM: test concentration of 2 μM, read-out: c-Src percent inhibition
T3 construct: purchased Upstate Biotechnology, Lake Placid, N.Y
T3 sequence (P12931 whole entry): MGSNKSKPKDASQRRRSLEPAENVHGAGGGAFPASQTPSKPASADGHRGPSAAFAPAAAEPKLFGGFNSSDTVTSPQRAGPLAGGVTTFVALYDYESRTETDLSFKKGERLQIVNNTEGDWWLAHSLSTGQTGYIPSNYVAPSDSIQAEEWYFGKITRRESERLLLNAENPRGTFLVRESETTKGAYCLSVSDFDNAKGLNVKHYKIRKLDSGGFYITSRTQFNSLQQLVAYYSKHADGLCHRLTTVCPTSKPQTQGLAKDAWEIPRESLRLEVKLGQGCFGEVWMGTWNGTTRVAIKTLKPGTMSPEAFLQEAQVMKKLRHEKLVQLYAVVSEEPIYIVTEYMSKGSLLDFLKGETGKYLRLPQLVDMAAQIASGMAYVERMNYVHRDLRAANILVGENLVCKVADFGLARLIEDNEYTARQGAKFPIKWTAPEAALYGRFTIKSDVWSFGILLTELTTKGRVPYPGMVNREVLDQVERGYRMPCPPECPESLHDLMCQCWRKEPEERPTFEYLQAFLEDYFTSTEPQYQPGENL
Description: A mixture of a 10× kinase buffer (80 mM MOPS at pH 7.0, 2 mM EDTA and 100 mM Magnesium Chloride), ATP (5 μM final from a 10 mM stock), a Cdc2 peptide KVEKIGEGTYVVYK (100 μM final from a 2.5 mM stock), γ-^33P ATP (10 μCi/μL stock) and water (20 μL/well) was added to each well of a Streptavidin Flashplate.
Test compound in 100% DMSO (0.5 μL) was added to the appropriate wells. Diluted c-Src kinase (human) (Upstate Biotechnology, Lake Placid, N.Y.) (diluted in a buffer consisting of 20 mM MOPS at pH 7.0, 1 mM EDTA, β-mercaptoethanol (0.1%), Brij-35 (0.01%), glycerol (5%) and 1 mg/mL bovine serum albumin) (2.5 μL) was added to the wells to initiate the reactions. The reaction plates were incubated at 30° C. for 40 min. The reaction was terminated by the addition of a 3% phosphoric acid solution (5 μL). The reaction product (10 μL) was spotted onto a P30 filtermat and washed for 5 minutes in phosphoric acid (75 mM). The wash sequence was repeated two more times, followed with one final wash in methanol. The plates were then dried, sealed and read on the TopCount scintillation counter after adding 30 μL scintillation fluid.
Percent inhibition was derived according to the procedure described in Example 2. For those compounds without an IC50, the percent inhibition results are shown at a test concentration of 2 μM.

T1 sequence (O08775 786-1343): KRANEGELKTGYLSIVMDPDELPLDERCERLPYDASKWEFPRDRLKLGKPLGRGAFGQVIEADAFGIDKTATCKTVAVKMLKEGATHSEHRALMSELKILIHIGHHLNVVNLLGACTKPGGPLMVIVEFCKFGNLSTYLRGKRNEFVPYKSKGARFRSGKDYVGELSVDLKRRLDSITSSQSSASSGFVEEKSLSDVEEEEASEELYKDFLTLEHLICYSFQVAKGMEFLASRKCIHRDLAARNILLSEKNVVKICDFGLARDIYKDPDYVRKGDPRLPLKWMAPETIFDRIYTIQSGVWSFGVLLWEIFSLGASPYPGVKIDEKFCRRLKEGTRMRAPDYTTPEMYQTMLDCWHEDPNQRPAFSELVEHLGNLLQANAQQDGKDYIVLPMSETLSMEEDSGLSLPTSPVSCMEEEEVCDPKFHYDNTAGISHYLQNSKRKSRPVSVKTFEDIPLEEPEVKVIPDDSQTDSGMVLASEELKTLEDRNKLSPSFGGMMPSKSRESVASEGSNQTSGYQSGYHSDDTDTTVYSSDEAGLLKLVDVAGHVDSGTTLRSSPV

Structure (SMILES) | IC50 [1] [µM] | IC50 [2] [µM] | inhibition at 2 µM [3] [%] | IC50 [3] [µM] | inhibition at 1 µM ([2]; test concentration of 1 μM, read-out: Aurora-A percent inhibition) [%]
CCOC(=O)c1sc2nc(N3CCOCC3)c(C#N)c3c2c1NC(=O)N3c1c(Cl)ccc2c1OCO2 [Cpd 7, 5-(5-chloro-benzo[1,3]dioxol-4-yl)-6-cyano-7-morpholin-4-yl-4-oxo-4,5-dihydro-3H-1-thia-3,5,8-triaza-acenaphthylene-2-carboxylic acid ethyl ester] | > 100 | > 10 | -1 |  | 
CN(C)C1CCN(Cc2ccc(NC(=O)c3sc4ncc(C#N)c5c4c3NC(=O)N5c3c(Cl)ccc4c3OCO4)cc2)CC1 [Cpd 42, 5-(5-chloro-benzo[1,3]dioxol-4-yl)-6-cyano-4-oxo-4,5-dihydro-3H-1-thia-3,5,8-triaza-acenaphthylene-2-carboxylic acid [4-(4-dimethylamino-piperidin-1-ylmethyl)-phenyl]-amide] | > 100 | > 10 |  |  | 
N#Cc1c(N2CCOCC2)nc2sc(C(=O)Nc3ccc(CN4CCOCC4)cc3)c3c2c1N(c1c(Cl)ccc2c1OCO2)C(=O)N3 [Cpd 8, 5-(5-chloro-benzo[1,3]dioxol-4-yl)-6-cyano-7-morpholin-4-yl-4-oxo-4,5-dihydro-3H-1-thia-3,5,8-triaza-acenaphthylene-2-carboxylic acid (4-morpholin-4-ylmethyl-phenyl)-amide] | 14.1 | 6.47 | -21 |  | 
COc1cc(N2C(=O)Nc3c(C(=O)Nc4ccc(CCN5CCOCC5)cc4)sc4ncc(C#N)c2c34)c(Cl)cc1Cl [Cpd 6, 6-cyano-5-(2,4-dichloro-5-methoxy-phenyl)-4-oxo-4,5-dihydro-3H-1-thia-3,5,8-triaza-acenaphthylene-2-carboxylic acid [4-(2-morpholin-4-yl-ethyl)-phenyl]-amide] | > 100 | > 10 |  | 0.368 | 
COC1CCN(Cc2ccc(NC(=O)c3sc4ncc(C#N)c5c4c3NC(=O)N5c3c(Cl)ccc4c3OCO4)cc2)CC1 [Cpd 18, 5-(5-chloro-benzo[1,3]dioxol-4-yl)-6-cyano-4-oxo-4,5-dihydro-3H-1-thia-3,5,8-triaza-acenaphthylene-2-carboxylic acid [4-(4-methoxy-piperidin-1-ylmethyl)-phenyl]-amide] | > 10 | > 1 |  |  | 
CN1CCC(NC(=O)c2sc3ncc(C#N)c4c3c2NC(=O)N4c2c(Cl)ccc3c2OCO3)CC1 [Cpd 10, 5-(5-chloro-benzo[1,3]dioxol-4-yl)-6-cyano-4-oxo-4,5-dihydro-3H-1-thia-3,5,8-triaza-acenaphthylene-2-carboxylic acid (1-methyl-piperidin-4-yl)-amide] | ~100 | 13.3 |  | 0.087 | 
N#Cc1cnc2sc(C(=O)Nc3ccc(CN4CCCCC4)cc3)c3c2c1N(c1ccc(Oc2ccccc2)cc1)C(=O)N3 [Cpd 49, 6-cyano-4-oxo-5-(4-phenoxy-phenyl)-4,5-dihydro-3H-1-thia-3,5,8-triaza-acenaphthylene-2-carboxylic acid (4-piperidin-1-ylmethyl-phenyl)-amide] | > 100 | > 100 |  |  | 
CCOC(=O)c1sc2nc(-c3cc(F)ccc3Cl)c(C#N)c3c2c1NC(=O)N3c1ccncc1 [Cpd 15, 7-(2-chloro-5-fluoro-phenyl)-6-cyano-4-oxo-5-pyridin-4-yl-4,5-dihydro-3H-1-thia-3,5,8-triaza-acenaphthylene-2-carboxylic acid ethyl ester] | > 100 | > 100 | -0.6 |  | 
CC1CCN(Cc2ccc(NC(=O)c3sc4ncc(C#N)c5c4c3NC(=O)N5c3c(Cl)ccc4c3OCO4)cc2)CC1 [Cpd 19, 5-(5-chloro-benzo[1,3]dioxol-4-yl)-6-cyano-4-oxo-4,5-dihydro-3H-1-thia-3,5,8-triaza-acenaphthylene-2-carboxylic acid [4-(4-methyl-piperidin-1-ylmethyl)-phenyl]-amide] | > 100 |  | 90 |  | 9
CC(C)(C)OC(=O)NC1CCN(Cc2ccc(NC(=O)c3sc4ncc(C#N)c5c4c3NC(=O)N5c3c(Cl)ccc4c3OCO4)cc2)CC1 [Cpd 46, [1-(4-{[5-(5-chloro-benzo[1,3]dioxol-4-yl)-6-cyano-4-oxo-4,5-dihydro-3H-1-thia-3,5,8-triaza-acenaphthylene-2-carbonyl]-amino}-benzyl)-piperidin-4-yl]-carbamic acid tert-butyl ester] | > 100 | > 1 |  |  | 
CN1CCN(CCc2ccc(NC(=O)c3sc4ncc(C#N)c5c4c3NC(=O)N5c3c(Cl)ccc4c3OCO4)cc2)CC1 [Cpd 12, 5-(5-chloro-benzo[1,3]dioxol-4-yl)-6-cyano-4-oxo-4,5-dihydro-3H-1-thia-3,5,8-triaza-acenaphthylene-2-carboxylic acid {4-[2-(4-methyl-piperazin-1-yl)-ethyl]-phenyl}-amide] | > 100 | ~10 | 91 |  | 
N#Cc1cnc2sc(C(=O)Nc3ccc(CCN4CCCCC4)cc3)c3c2c1N(c1c(Cl)ccc2c1OCO2)C(=O)N3 [Cpd 11, 5-(5-chloro-benzo[1,3]dioxol-4-yl)-6-cyano-4-oxo-4,5-dihydro-3H-1-thia-3,5,8-triaza-acenaphthylene-2-carboxylic acid [4-(2-piperidin-1-yl-ethyl)-phenyl]-amide] | > 100 | > 1 |  | 0.0712 | 
CCOC(=O)c1sc2nc(O)c(C#N)c3c2c1NC(=O)N3c1ccncc1 [Cpd 14, 6-cyano-7-hydroxy-4-oxo-5-pyridin-4-yl-4,5-dihydro-3H-1-thia-3,5,8-triaza-acenaphthylene-2-carboxylic acid ethyl ester] | > 100 | > 100 | 11 |  | 
CN(C)C1CCN(C(=O)c2sc3ncc(C#N)c4c3c2NC(=O)N4c2c(Cl)ccc3c2OCO3)CC1 [Cpd 41, 5-(5-chloro-benzo[1,3]dioxol-4-yl)-2-(4-dimethylamino-piperidine-1-carbonyl)-4-oxo-4,5-dihydro-3H-1-thia-3,5,8-triaza-acenaphthylene-6-carbonitrile] | > 100 | > 10 |  |  | 
N#Cc1cnc2sc(C(=O)Nc3ccc(CCN4CCOCC4)cc3)c3c2c1N(c1c(Cl)ccc2c1OCO2)C(=O)N3 [Cpd 13, 5-(5-chloro-benzo[1,3]dioxol-4-yl)-6-cyano-4-oxo-4,5-dihydro-3H-1-thia-3,5,8-triaza-acenaphthylene-2-carboxylic acid [4-(2-morpholin-4-yl-ethyl)-phenyl]-amide] | > 10 | 5.93 | 78 |  | 
N#Cc1cnc2sc(C(=O)Nc3ccc(CCN4CCCCC4)cc3)c3c2c1N(c1ccc(Oc2ccccc2)cc1)C(=O)N3 [Cpd 48, 6-cyano-4-oxo-5-(4-phenoxy-phenyl)-4,5-dihydro-3H-1-thia-3,5,8-triaza-acenaphthylene-2-carboxylic acid [4-(2-piperidin-1-yl-ethyl)-phenyl]-amide] | > 100 | > 100 |  |  | 
COc1cc(NC(=O)c2sc3ncc(C#N)c4c3c2NC(=O)N4c2ccc(Oc3ccccc3)cc2)ccc1CN1CCOCC1 [Cpd 45, 6-cyano-4-oxo-5-(4-phenoxy-phenyl)-4,5-dihydro-3H-1-thia-3,5,8-triaza-acenaphthylene-2-carboxylic acid (3-methoxy-4-morpholin-4-ylmethyl-phenyl)-amide] | > 100 | > 100 |  |  | 
